Experimental data taken from PubChem BioAssay AID248 (DTP/NCI, 2004).
Values joined by “and” are separate entries in the source; they are usually repeats but may differ in a detail not shown here. Equal entries are not always repeated. Inconclusive results and toxic doses are left out. No stated cut-off is given here; in the data, active means T/C of 150% or more; inactive means T/C below 125%.

Test system: L1210 leukemia ip in BDF1 mice, survival T/C
Test: NCI In Vivo Anticancer Drug Screen. Data for tumor model L1210 Leukemia (intraperitoneal) in B6D2F1 (BDF1) mice
Details: endpoint: mean survival time, higher = longer survival
How it was run: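 Read-out is survival time, reported as the treated-group measurement over the vehicle-control measurement.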

[1] = dose: 100.0 mg/kg/injection, schedule: Q01DX009 (ip), vehicle: saline with Tween-80
[2] = dose: 200.0 mg/kg/injection, schedule: Q01DX009 (ip), vehicle: saline with Tween-80
[3] = dose: 400.0 mg/kg/injection, schedule: Q01DX009 (ip), vehicle: saline with Tween-80
[4] = dose: 6.25 mg/kg/injection, schedule: Q01DX009 (ip), vehicle: saline
[5] = dose: 12.5 mg/kg/injection, schedule: Q01DX009 (ip), vehicle: saline
[6] = dose: 25.0 mg/kg/injection, schedule: Q01DX009 (ip), vehicle: saline
[7] = dose: 100.0 mg/kg/injection, schedule: Q04DX003 (ip), vehicle: saline with Tween-80
[8] = dose: 100.0 mg/kg/injection, schedule: Q01DX009 (ip), vehicle: Klucel (hydroxypropylcellulose) (HPC)
[9] = dose: 200.0 mg/kg/injection, schedule: Q01DX009 (ip), vehicle: Klucel (hydroxypropylcellulose) (HPC)
[10] = dose: 400.0 mg/kg/injection, schedule: Q01DX009 (ip), vehicle: Klucel (hydroxypropylcellulose) (HPC)
[11] = dose: 25.0 mg/kg/injection, schedule: Q01DX009 (ip), vehicle: saline with Tween-80
[12] = dose: 50.0 mg/kg/injection, schedule: Q01DX009 (ip), vehicle: saline with Tween-80
[13] = dose: 100.0 mg/kg/injection, schedule: Q01DX001 (ip), vehicle: saline
[14] = dose: 200.0 mg/kg/injection, schedule: Q01DX001 (ip), vehicle: saline
[15] = dose: 400.0 mg/kg/injection, schedule: Q01DX001 (ip), vehicle: saline
[16] = dose: 50.0 mg/kg/injection, schedule: Q01DX009 (ip), vehicle: Klucel (hydroxypropylcellulose) (HPC)
[17] = dose: 100.0 mg/kg/injection, schedule: Q04DX003 (ip), vehicle: Klucel (hydroxypropylcellulose) (HPC)
[18] = dose: 200.0 mg/kg/injection, schedule: Q04DX003 (ip), vehicle: Klucel (hydroxypropylcellulose) (HPC)
[19] = dose: 400.0 mg/kg/injection, schedule: Q04DX003 (ip), vehicle: Klucel (hydroxypropylcellulose) (HPC)
[20] = dose: 100.0 mg/kg/injection, schedule: Q01DX009 (ip), vehicle: saline
[21] = dose: 200.0 mg/kg/injection, schedule: Q01DX009 (ip), vehicle: saline
[22] = dose: 400.0 mg/kg/injection, schedule: Q01DX009 (ip), vehicle: saline
[23] = dose: 50.0 mg/kg/injection, schedule: Q01DX001 (ip), vehicle: carboxymethylcellulose (CMC)
[24] = dose: 100.0 mg/kg/injection, schedule: Q01DX001 (ip), vehicle: carboxymethylcellulose (CMC)
[25] = dose: 200.0 mg/kg/injection, schedule: Q01DX001 (ip), vehicle: carboxymethylcellulose (CMC)

Measured: T/C

CC12CCC(O)CC1=CCC1C2CCC2(C)C1CC1=CC(C#N)C(=O)NC12O (stereo not given)
inactive: dose: 100.0 mg/kg/injection, schedule: Q04DX003 (sc), vehicle: Klucel (hydroxypropylcellulose) (HPC) 100 % of control | dose: 200.0 mg/kg/injection, schedule: Q04DX003 (sc), vehicle: Klucel (hydroxypropylcellulose) (HPC) 103 % of control | dose: 400.0 mg/kg/injection, schedule: Q04DX003 (sc), vehicle: Klucel (hydroxypropylcellulose) (HPC) 99 % of control

O=C(CNC(=O)c1ccccc1)N/N=C/c1cccc2ccccc12
inactive: [1] 89 % of control | [2] 94 % of control | [3] 94 % of control

CC(C)(SC(c1ccccc1)(c1ccccc1)c1ccccc1)C(N)C(=O)O (stereo not given)
inactive: [4] 103 % of control | [5] 102 % of control | [6] 108 % of control

Cc1cc(C)c2nc(N)sc2c1
inactive: [7] 94 % of control

Nc1nc(-c2ccccc2)cc(=O)[nH]1
inactive: [8] 88 % of control | [9] 97 % of control | [10] 93 % of control

CCCCCCCCN(c1ccc(C(=O)NC(CCC(=O)OCC)C(=O)OCC)cc1)S(=O)(=O)c1ccc(C)cc1 (stereo not given)
inactive: dose: 12.5 mg/kg/injection, schedule: Q01DX009 (ip), vehicle: saline with Tween-80 95 % of control | [11] 95 % of control | [12] 95 % of control

O=NN1CCOCC1
inactive: dose: 50.0 mg/kg/injection, schedule: Q01DX001 (ip), vehicle: saline 104 % of control | [13] 93 % of control | [14] 104 % of control

COc1cc2cc(C(=O)O)sc2cc1OC
inactive: [13] 91 % of control | [14] 91 % of control | [15] 91 % of control

COC(=O)Nc1cc2c3c(c1)CCCN3CCC2
inactive: [12] 91 % of control | [1] 96 % of control

CN(C)N=Nc1ccccc1C#N
inactive: [16] 103 % of control | [8] 108 % of control | [17] 112 % of control | [9] 113 % of control | [18] 113 % of control | [10] 105 % of control and 120 % of control | [19] 107 % of control

CC(=O)N(C1=C(Cl)C(=O)c2ccccc2C1=O)c1ccc(Cl)cc1
inactive: dose: 75.0 mg/kg/injection, schedule: Q01DX001 (ip), vehicle: carboxymethylcellulose (CMC) 93 % of control | dose: 150.0 mg/kg/injection, schedule: Q01DX001 (ip), vehicle: carboxymethylcellulose (CMC) 92 % of control

C=COC(=O)c1ccccc1
inactive: [1] 98 % of control | dose: 100.0 mg/kg/injection, schedule: Q04DX002 (ip), vehicle: saline with Tween-80 93 % of control | [2] 98 % of control | dose: 200.0 mg/kg/injection, schedule: Q04DX002 (ip), vehicle: saline with Tween-80 93 % of control | [3] 95 % of control | dose: 400.0 mg/kg/injection, schedule: Q04DX002 (ip), vehicle: saline with Tween-80 93 % of control

O=c1[nH]cnc2nc(I)[nH]c12
inactive: [13] 104 % of control | [14] 98 % of control | [15] 98 % of control

CC(C)(C)Nc1ccc(F)cc1
inactive: dose: 100.0 mg/kg/injection, schedule: Q04DX002 (ip), vehicle: Klucel (hydroxypropylcellulose) (HPC) 106 % of control | dose: 200.0 mg/kg/injection, schedule: Q04DX002 (ip), vehicle: Klucel (hydroxypropylcellulose) (HPC) 95 % of control

O=C1C=CC(=O)C1
inactive: dose: 2.25 mg/kg/injection, schedule: Q01DX009 (ip), vehicle: saline 111 % of control | dose: 2.25 mg/kg/injection, schedule: Q04DX003 (ip), vehicle: saline 97 % of control | dose: 4.5 mg/kg/injection, schedule: Q01DX009 (ip), vehicle: saline 106 % of control | dose: 4.5 mg/kg/injection, schedule: Q04DX003 (ip), vehicle: saline 98 % of control | dose: 9.0 mg/kg/injection, schedule: Q04DX003 (ip), vehicle: saline 96 % of control

O=COCCN(C=O)c1ccc(C(=O)O)cc1
inactive: dose: 75.0 mg/kg/injection, schedule: Q01DX009 (ip), vehicle: Klucel (hydroxypropylcellulose) (HPC) 92 % of control | dose: 150.0 mg/kg/injection, schedule: Q01DX009 (ip), vehicle: Klucel (hydroxypropylcellulose) (HPC) 87 % of control | dose: 300.0 mg/kg/injection, schedule: Q01DX009 (ip), vehicle: Klucel (hydroxypropylcellulose) (HPC) 88 % of control

CC(C)(C)NC1=NCCO1
inactive: [11] 100 % of control | [12] 102 % of control | [1] 96 % of control | [7] 100 % of control

O=C(Sc1n[nH]c(=O)[nH]c1=O)c1ccccc1
inactive: [13] 109 % of control | [14] 107 % of control | [15] 105 % of control

CCN1C(=O)CC(O)C1=O (stereo not given)
inactive: [20] 101 % of control | [21] 100 % of control | [22] 97 % of control

CC(=O)OCC(C)CC/C(=N\O)C(C)C1/C(=N/O)CC2C=C3CC(OC(C)=O)CCC3(C)CC21C (stereo not given)
inactive: [16] 97 % of control | [8] 91 % of control | [9] 91 % of control

CCCCCCCCN1N=CC(CC)C1CCC (stereo not given)
inactive: [23] 105 % of control | [24] 88 % of control | [25] 92 % of control

Cc1c(C)c(Br)c(C)c(-c2c(C)c(C)c(C)c(Br)c2C)c1C
inactive: [16] 99 % of control | [8] 97 % of control | [9] 94 % of control | [10] 90 % of control

OCC(O)C(O)C(O)C(Sc1ccccc1)Sc1ccccc1 (stereo not given)
inactive: dose: 75.0 mg/kg/injection, schedule: Q01DX001 (ip), vehicle: saline 97 % of control | dose: 100.0 mg/kg/injection, schedule: Q01DX001 (ip), vehicle: other 95 % of control | dose: 150.0 mg/kg/injection, schedule: Q01DX001 (ip), vehicle: saline 102 % of control | dose: 200.0 mg/kg/injection, schedule: Q01DX001 (ip), vehicle: other 101 % of control | dose: 300.0 mg/kg/injection, schedule: Q01DX001 (ip), vehicle: saline 102 % of control | dose: 400.0 mg/kg/injection, schedule: Q01DX001 (ip), vehicle: other 97 % of control

CN(C)c1ccc2cc(S(=O)(=O)O)cc(O)c2c1
inactive: [1] 102 % of control | [17] 105 % of control | [2] 96 % of control | [18] 95 % of control | [3] 94 % of control | [19] 93 % of control

CC(=O)Nc1cc(C)no1
inactive: [20] 103 % of control | [17] 102 % of control | [21] 100 % of control | [18] 96 % of control | [22] 101 % of control | [19] 92 % of control

CCOC(=S)c1ccc(S(=O)(=O)Nc2ccccc2)cc1
inactive: dose: 100.0 mg/kg/injection, schedule: Q01DX001 (ip), vehicle: saline with Tween-80 100 % of control | dose: 200.0 mg/kg/injection, schedule: Q01DX001 (ip), vehicle: saline with Tween-80 97 % of control | dose: 400.0 mg/kg/injection, schedule: Q01DX001 (ip), vehicle: saline with Tween-80 95 % of control

CC(=O)N(NC(C)C)C(C)C
inactive: [4] 104 % of control | [5] 93 % of control | [6] 94 % of control | dose: 25.0 mg/kg/injection, schedule: Q04DX003 (ip), vehicle: saline 98 % of control | dose: 50.0 mg/kg/injection, schedule: Q01DX009 (ip), vehicle: saline 100 % of control | dose: 50.0 mg/kg/injection, schedule: Q04DX003 (ip), vehicle: saline 98 % of control | [20] 104 % of control | dose: 100.0 mg/kg/injection, schedule: Q04DX003 (ip), vehicle: saline 93 % of control

O=c1[nH]cnc2[nH]cc([N+](=O)[O-])c12
inactive: [23] 101 % of control | [24] 89 % of control | [25] 98 % of control and 87 % of control | dose: 400.0 mg/kg/injection, schedule: Q01DX001 (ip), vehicle: carboxymethylcellulose (CMC) 93 % of control and 97 % of control
